Laboratory results published in PubChem BioAssay AID1259411 (Chemical Carcinogenesis Research Information System (CCRIS), 2018).
The source made the active and inactive calls. How the calls were made is not given here.

Test system: rodent carcinogenicity bioassays, tumor incidence
Assay: CCRIS carcinogenicity studies
In short: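 NCI-built, expert-reviewed records of carcinogenicity and related test outcomes (mutagenicity, tumor promotion/inhibition) compiled from published and report sources, historical span 1985-2011, not updated.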

With `COC(C)(C)C` the carcinogen call (Species: MOUSE, Strain/Sex: CD-1/FEMALE, Route: INHALATION, Dose: 0, 400, 3000, 8000 PPM IN AIR 6 HR/D 5 D/WK FOR 18 MO (STUDY DURATION: 18 MO), Dose: 0, 400, 3000, 8000 PPM IN AIR 6 HR/D 5 D/WK FOR 18 MO (STUDY DURATION: 18 MO), Tumor Site: Type of Lesion: LIVER: ADENOMA) was “active; positive”, the carcinogen call (Species: MOUSE, Strain/Sex: CD-1/MALE, Route: INHALATION, Dose: 0, 400, 3000, 8000 PPM IN AIR 6 HR/D 5 D/WK FOR 18 MO (STUDY DURATION: 18 MO), Dose: 0, 400, 3000, 8000 PPM IN AIR 6 HR/D 5 D/WK FOR 18 MO (STUDY DURATION: 18 MO)) was “inactive; negative” and the carcinogen call (Species: RAT, Strain/Sex: F344/FEMALE, Route: INHALATION, Dose: 0, 400, 3000, 8000 PPM IN AIR 6 HR/D 5 D/WK FOR 24 MO (STUDY DURATION: 24 MO), Dose: 0, 400, 3000, 8000 PPM IN AIR 6 HR/D 5 D/WK FOR 24 MO (STUDY DURATION: 24 MO)) was “inactive; negative”. The carcinogen call (Species: RAT, Strain/Sex: F344/MALE, Route: INHALATION, Dose: 0, 400, 3000, 8000 PPM IN AIR 6 HR/D 5 D/WK FOR 24 MO (STUDY DURATION: 24 MO), Dose: 0, 400, 3000, 8000 PPM IN AIR 6 HR/D 5 D/WK FOR 24 MO (STUDY DURATION: 24 MO), Tumor Site: Type of Lesion: KIDNEY(RENAL TUBULE): ADENOMA OR CARCINOMA) was “active; positive”, the carcinogen call (Species: RAT, Strain/Sex: SPRAGUE-DAWLEY/FEMALE, Route: GAVAGE, Dose: 0, 250, 1000 MG/KG BW IN 1 ML OLIVE OIL 1/D 4 D/WK FOR 104 WK (STUDY DURATION: 166 WK), Dose: 0, 250, 1000 MG/KG BW IN 1 ML OLIVE OIL 1/D 4 D/WK FOR 104 WK (STUDY DURATION: 166 WK), Tumor Site: Type of Lesion: HEMOLYMPHORETICULAR SYSTEM: LYMPHOMA OR LEUKEMIA) was “active; positive” and the carcinogen call (Species: RAT, Strain/Sex: SPRAGUE-DAWLEY/FEMALE, Route: GAVAGE, Dose: 0, 250, 1000 MG/KG BW IN OLIVE OIL 1/D 4D/WK FOR 104 WK (STUDY DURATION: LIFE SPAN), Dose: 0, 250, 1000 MG/KG BW IN OLIVE OIL 1/D 4D/WK FOR 104 WK (STUDY DURATION: LIFE SPAN), Tumor Site: Type of Lesion: MULTIPLE SITES: LYMPHOMA OR LEUKEMIA) was “active; positive”. The carcinogen call (Species: RAT, Strain/Sex: SPRAGUE-DAWLEY/MALE, Route: GAVAGE, Dose: 0, 250, 1000 MG/KG BW IN 1 ML OLIVE OIL 1/D 4 D/WK FOR 104 WK (STUDY DURATION: 166 WK), Dose: 0, 250, 1000 MG/KG BW IN 1 ML OLIVE OIL 1/D 4 D/WK FOR 104 WK (STUDY DURATION: 166 WK), Tumor Site: Type of Lesion: TESTES: LEYDIG CELL TUMOR) was “active; positive” and the carcinogen call (Species: RAT, Strain/Sex: SPRAGUE-DAWLEY/MALE, Route: GAVAGE, Dose: 0, 250, 1000 MG/KG BW IN OLIVE OIL 1/D 4D/WK FOR 104 WK (STUDY DURATION: LIFE SPAN), Dose: 0, 250, 1000 MG/KG BW IN OLIVE OIL 1/D 4D/WK FOR 104 WK (STUDY DURATION: LIFE SPAN), Tumor Site: Type of Lesion: TESTES: LEYDIG CELL TUMOR) was “active; positive”.

With `C=C(C#N)C(=O)O` the carcinogen call (Species: RAT, Strain/Sex: F344/FEMALE, Route: SUBCUTANEOUS IMPLANT, Dose: 0.12 G INJECTED INTO 2 SITES ON THE LATERAL ABDOMEN, 2 SITES ON THE LATERAL CHEST REGION AND 1 SITE ON THE BACK (STUDY D, Tumor Site: Type of Lesion: IMPLANT SITE: MALIGNANT HISTIOCYTOMA) was “active; positive”.

`C/[N+]([O-])=N/CO[C@@H]1O[C@H](CO)[C@@H](O)[C@H](O)[C@H]1O` was tested, and the carcinogen call (Species: GUINEA PIG, Route: ORAL, Dose: 0, 5% IN DIET OF CYCAD MEAL, 2-3 5-D PERIODS, Tumor Site: Type of Lesion: LIVER: HEPATOCELLULAR CARCINOMA, BILE DUCT) was “active; positive”, the carcinogen call (Species: GUINEA PIG, Route: ORAL, Tumor Site: Type of Lesion: LIVER, BILE DUCT) was “active; positive” and the carcinogen call (Species: HAMSTER, Route: GAVAGE, Dose: 0.1, 0.15 MG/G BW, SINGLE DOSE, Tumor Site: Type of Lesion: LIVER: HEPATOCELLULAR ADENOMA, BILE DUCT: CARCINOMA, HEMANGIOENDOTHELIAL SARCOMA, LUNG: ADENOMA, INTESTINES, KIDNEY: CAR, Tumor Site: Type of Lesion: LIVER: HEPATOCELLULAR ADENOMA, BILE DUCT: CARCINOMA, HEMANGIOENDOTHELIAL SARCOMA, LUNG: ADENOMA, INTESTINES, KIDNEY: CAR) was “active; positive”. For the same compound, the carcinogen call (Species: HAMSTER, Route: ORAL, Tumor Site: Type of Lesion: LIVER, LUNG, INTESTINES, KIDNEY, Tumor Site: Type of Lesion: LIVER, LUNG, INTESTINES, KIDNEY) was “active; positive”, the carcinogen call (Species: HAMSTER, Route: SUBCUTANEOUS, Tumor Site: Type of Lesion: LIVER) was “active; positive” and the carcinogen call (Species: MONKEY, Strain/Sex: AFRICAN GREEN, Route: ORAL, Dose: 0, 3% (50-75 MG/KG) IN DIET OF CRUDE CYCAD MEAL, 5 D/WK FOR UP TO 11 YR, Tumor Site: Type of Lesion: UNSPECIFIED: NEOPLASM) was “active; positive”. The carcinogen call (Species: MONKEY, Strain/Sex: CYNOMOLGUS, Route: ORAL, Dose: 0, 3% (50-75 MG/KG) IN DIET OF CRUDE CYCAD MEAL, 5 D/WK FOR UP TO 11 YR, Tumor Site: Type of Lesion: UNSPECIFIED: NEOPLASM) was “active; positive”, the carcinogen call (Species: MONKEY, Strain/Sex: RHESUS, Route: ORAL, Dose: 0, 3% (50-75 MG/KG) IN DIET OF CRUDE CYCAD MEAL, 5 D/WK FOR UP TO 11 YR, Tumor Site: Type of Lesion: UNSPECIFIED: NEOPLASM) was “active; positive” and the carcinogen call (Species: MOUSE, Route: SUBCUTANEOUS, Tumor Site: Type of Lesion: LIVER, LUNG) was “active; positive”. The carcinogen call (Species: RABBIT, Route: ORAL, Tumor Site: Type of Lesion: LIVER) was “active; positive”, the carcinogen call (Species: RAT, Route: ORAL, Tumor Site: Type of Lesion: INTESTINES, KIDNEY, LIVER, Tumor Site: Type of Lesion: INTESTINES, KIDNEY, LIVER) was “active; positive” and the carcinogen call (Species: RAT, Route: SUBCUTANEOUS, Tumor Site: Type of Lesion: KIDNEY, INTESTINES, LIVER, Tumor Site: Type of Lesion: KIDNEY, INTESTINES, LIVER) was “active; positive”. For the same compound, the carcinogen call (Species: RAT, Strain/Sex: SPRAGUE-DAWLEY/MALE,FEMALE, Route: GAVAGE, Dose: 3 ML/KG BW CYCAD EXTRACT, 1/WK FOR 12 WK, Tumor Site: Type of Lesion: INTESTINES) was “active; positive”, the carcinogen call (Species: RAT, Strain/Sex: SPRAGUE-DAWLEY/MALE,FEMALE, Route: RECTAL, Dose: 50 MG/KG BW INTO INTESTINE 1/WK FOR 12 WK, Tumor Site: Type of Lesion: INTESTINES) was “active; positive” and the carcinogen call (Species: RAT, Strain/Sex: SPRAGUE-DAWLEY/MALE, Route: GAVAGE, Dose: 80, 250 MG/KG, SINGLE DOSE, Tumor Site: Type of Lesion: INTESTINES (COLON OR RECTUM), INTESTINES (JEJUNUM OR ILEUM), DUODENUM, Tumor Site: Type of Lesion: INTESTINES (COLON OR RECTUM), INTESTINES (JEJUNUM OR ILEUM), DUODENUM) was “active; positive”. The carcinogen call (Species: RAT, Strain/Sex: SPRAGUE-DAWLEY/MALE, Route: GAVAGE, Dose: 80 MG/KG, 1/WK FOR 15 WK, Tumor Site: Type of Lesion: INTESTINES (COLON OR RECTUM), INTESTINES (JEJUNUM OR ILEUM)) was “active; positive”.
